{
  "source": "patent US20230075368A1",
  "about": "“IDENTIFICATION OF AN EGFR-BIN3 PATHWAY THAT ACTIVELY SUPPRESSES INVASION AND REDUCES TUMOR SIZE IN GLIOBLASTOMA” (The United States Govemment as represented by the …, priority 2020, published 2023)",
  "key": {"HB-EGF": {"test_system": "HB-EGF", "test": "ELISA for HB-EGF in supernatants", "format": "cell-based, human", "conditions": "tofacitinib 1 μM, 72 hours; GBM12 and GBM6", "experimental": "To determine EGFR ligands in medium, cells were serum starved for 48 hours, supernatants were collected and concentrated 5- to 10-fold with Pierce protein concentrator (ThermoFisher). HB-EGF, TGFα and EGF protein concentration in supernatant and tumor tissue extracts was determined by ELISA using the corresponding commercial HB-EGF, TGFα and EGF protein detection kits (ThermoFisher) per the manufacturer's instructions."}, "betacellulin": {"test_system": "betacellulin", "test": "ELISA for BTC in supernatants", "format": "cell-based, human", "conditions": "tofacitinib 1 μM, 72 hours; GBM12 and GBM6", "description": "Similar experiments were performed in GBM6 (FIG. 20D). […] Similar experiments were performed in GBM6 (FIG. 20F). […] The Western blot images are representative of three independent biological replicates. Actin served as loading control. Data are represented as mean±SEM from three independent experiments. * P<0.05, **P<0.01, *[…], unpaired two-tailed t-test."}, "STAT3": {"test_system": "STAT3", "test": "Western blot of pSTAT3 and STAT3", "format": "cell-based, human", "conditions": "tofacitinib 1 μM, 24 hours; GBM12 and GBM6", "description": "Mayo PDX cells were serum starved overnight. Following treatment for specific time, cells were harvested and lysed. The human glioblastoma tissues were ground in liquid nitrogen and then were lysed. […] TGFα antibody was from R&D system.\n. . . […] A similar experiment was performed in GBM6 (FIG. 18F). […] The Western blot images are representative of three independent biological replicates. Actin served as loading control. Data are represented as mean±SEM from three independent experiments. *P<0.05, **P<0.01, ***P<0.001, unpaired two-tailed t-test."}, "Met": {"test_system": "Met", "test": "Western blot of pMet and total Met", "format": "cell-based, human", "conditions": "HGF 20 ng/ml; GBM12 and GBM6", "description": "Whole protein extracts from cells or tumor tissues were analyzed by western blot as previously described (Altieri et al. (2015) Surg. Technol. Int 27: 297-302). Mayo PDX cells were serum starved overnight. Following treatment for specific time, cells were harvested and lysed. The human glioblastoma tissues were ground in liquid nitrogen and then were lysed. EGFR (06-847) antibody was from Millipore. DOCK7 was from Proteintech (Rosemont, Ill.). pEGFR (2236), STAT3 (12640), pSTAT3 (9145), cdc42(4376), and RhoA (4695) antibodies were from Cell Signaling Technology (Danvers, Mass.). TGFα antibody was from R&D system. BIN3 (sc-514396) and (3-Actin (sc-47778) were from Santa Cruz Biotechnology (Dallas, Tex.).\nReferring to FIG. 11A-E, HGF induces invasion in GBM12 and GBM6. […] Cells were seeded on Matrigel coated inserts for 24 hours in the absence or presence of HGF (20 ng/ml). A Western blot analysis of DOCK7 antibody immunoprecipitated extracts from GBM12 and GBM6 treated with HGF for 24 hours (20 ng/ml) is shown in FIG. 11C. A Western blot showing GTP-bound RhoA (RhoA-GTP) and total RhoA levels after HGF treatment for 24 hours in GBM12 and GBM6 is shown in FIG. 11D. A Western blot showing CDC42-GTP and total CDC42 levels after HGF treatment (20 ng/ml) for 24 hours in GBM12 and GBM6. The Western blot images are representative of three independent biological replicates. […]"}, "[1]": {"test_system": "U251MG and U87MG cell lines", "test": "Matrigel invasion assay in established GBM lines", "format": "cell-based, human", "conditions": "for cell invasion: EGF 50 ng/ml", "description": "Invasion status of cells was tested with Matrigel Boyden chamber assays (Fisher). 1×10^5 cells were plated on BD BioCoat Matrigel invasion chambers. 24 hours after treatment with drugs, invaded cells were stained with the HEMA-3 kit (Fisher). Invaded cells were counted in 4-5 random fields.\nReferring to FIG. 6A-E, EGF inhibits EGFR overexpression induced cell invasion. […] Tetracycline induced EGFR overexpression was confirmed by Western blotting (FIG. 6E). The Western blot images are representative of three independent biological replicates. Actin served as loading control. Data are represented as mean±SEM from three independent experiments. **P<0.01, ***P<0.001, n.s. not significant, unpaired two-tailed t-test."}, "DOCK7": {"test_system": "DOCK7", "test": "GEF activity of DOCK7 (Cdc42 G15A agarose pull down)", "format": "cell-based, human", "conditions": "EGF, 24 hours; GBM12 and GBM6", "description": "To measure GEF activity of DOCK7, cell lysates were incubated with 40 μl Cdc42 G15A agarose beads (ab211185, Abcam) at 4° C. for 1 hour. The agarose beads were then washed boiled and the supernatants were used to immunoblot with DOCK7 antibody to determine levels of active DOCK7."}, "GBM12 cells": {"test_system": "GBM12 cells", "test": "Intravital microscopy of GBM cell motility through cranial window", "format": "in vivo, mice", "conditions": "10 ng EGF injected through cranial window 24 hours before imaging", "description": "Two-photon laser intravital microscope combined with cranial window surgery was used to observe cellular movement in vivo. Female athymic nude mice were anesthetized with 2.5% isoflourane and secured in a stereotactic frame. The head was shaved and the scalp was cut in a circular manner. The periosteum was scraped and a drill was used to create a circular cranial window over the front and parietal bone. 10 μL of 1×10^6 cells/ml GBM12 stably expressing H2B-GFP were implanted at a depth of 0.5 mm. Following implantation, a 5 mm silicone-based polydimethylsiloxane (PDMS) coverslip was glued to the bone surrounding the cranial window. PDMS (SYLGARD184, Sigma-Aldrich) film was prepared as described by Heo et al. (Heo, et al. (2016) A soft, transparent, freely accessible cranial window for chronic imaging and electrophysiology, Sci Rep 6: 27818). PDMS coverslip allows for easy insertion of Hamilton needle into the brain tissue for EGF delivery. Dental cement was applied on the skull surface, covering the edge of the coverslip. Seven days after surgery and 24 hours prior to imaging procedure, 10 ng EGF or vehicle was injected into the mice brain through cranial window. […]\nReferring to FIG. 14A and FIG. 14B, EGF reduces cell migration speed in vivo detected by intravital microscopy. […] The cell velocity of around 200 cells per mouse were evaluated. […]"}, "glioma cells": {"test_system": "glioma cells", "conditions": "Ramnarain et al. 2006, cited from earlier work"}},
  "data": [
    {"compound": "C[C@@H]1CCN(C(=O)CC#N)C[C@@H]1N(C)c1ncnc2[nH]ccc12", "note": "[tofacitinib]", "values": [
      {"measurement": "HB-EGF in supernatant", "setting": "HB-EGF", "value": "upregulates"},
      {"measurement": "upregulation of betacellulin", "setting": "betacellulin", "value": "not found"},
      {"measurement": "phosphorylation of STAT3", "setting": "STAT3", "value": "blocks phosphorylation"}
    ]},
    {"compound": "HGF: the ligand for Met", "values": [
      {"measurement": "Met phosphorylation", "setting": "Met", "value": "increased"}
    ]},
    {"compound": "EGF: Recombinant human EGF (AF-100) from Peprotech; EGFR ligand", "values": [
      {"measurement": "cell invasion", "setting": "[1]; EGFR overexpressed in U87MG and U251MG", "value": "decreased invasion"},
      {"measurement": "cell invasion", "setting": "[1]; U251MG and U87MG with low endogenous EGFR", "value": "increased invasiveness"},
      {"measurement": "invasion increased by inducible EGFRwt expression", "setting": "[1]; tetracycline induced EGFR overexpressing U251MG cells, plus EGF", "value": "abolished"},
      {"measurement": "DOCK7 activity", "setting": "DOCK7", "value": "decreased activity"},
      {"measurement": "movement of glioma cells in live mouse brain", "setting": "GBM12 cells", "value": "almost complete cessation of movement"},
      {"measurement": "BIN3 gene upregulation when EGF is added", "setting": "glioma cells; EGFR overexpressing glioma cells", "value": 19.2, "unit": "fold"},
      {"measurement": "EGR1 gene induction with ligand-activated EGFR signaling", "setting": "glioma cells", "value": 13.68, "unit": "fold"}
    ]}
  ]
}
